Reference: ChEMBL document CHEMBL3853301, “The therapeutic voyage of pyrazole and its analogs: A review” (Eur J Med Chem, 2016)
≈ marks a conversion by molar mass, not a printed value.

Assays:
[1] = system: Rattus norvegicus; assay: Antihyperglycemic activity in STZ/nicotinamide-induced type2 diabetic Wistar rat model assessed as blood glucose level at 100 mg/kg, po measured for 14 days post dose; assay type: functional
[2] = Antiproliferative activity against human NPC-TW01 cells after 72 hrs by MTT assay; assay type: functional; conditions: NPC-TW01, 72 h
[3] = Antiproliferative activity against human NCI-H226 cells after 72 hrs by MTT assay; assay type: functional; conditions: NCI-H226, 72 h
[4] = Antifungal activity against Penicillium notatum NCIM 745 by broth microdilution method; assay type: functional; conditions: Penicillium chrysogenum
[5] = system: Aspergillus fumigatus; assay: Antifungal activity against Aspergillus fumigatus NCIM 535 by broth microdilution method; assay type: functional
[6] = system: Bacillus subtilis; assay: Antibacterial activity against Bacillus subtilis NCIM 2711 by broth microdilution method; assay type: functional
[7] = system: Staphylococcus aureus; assay: Antibacterial activity against Staphylococcus aureus NCTC 7447 by serial dilution method; assay type: functional
[8] = system: Staphylococcus aureus; assay: Antibacterial activity against Staphylococcus aureus NCTC 7447 by agar diffusion method; assay type: functional
[9] = target: T1, Prostaglandin G/H synthase 1 (Ovis aries, UniProt P05979); assay: Inhibition of recombinant ovine COX1 assessed as reduction in PGF2alpha production from PGH2 by enzyme immunoassay
T1 sequence (P05979 whole entry): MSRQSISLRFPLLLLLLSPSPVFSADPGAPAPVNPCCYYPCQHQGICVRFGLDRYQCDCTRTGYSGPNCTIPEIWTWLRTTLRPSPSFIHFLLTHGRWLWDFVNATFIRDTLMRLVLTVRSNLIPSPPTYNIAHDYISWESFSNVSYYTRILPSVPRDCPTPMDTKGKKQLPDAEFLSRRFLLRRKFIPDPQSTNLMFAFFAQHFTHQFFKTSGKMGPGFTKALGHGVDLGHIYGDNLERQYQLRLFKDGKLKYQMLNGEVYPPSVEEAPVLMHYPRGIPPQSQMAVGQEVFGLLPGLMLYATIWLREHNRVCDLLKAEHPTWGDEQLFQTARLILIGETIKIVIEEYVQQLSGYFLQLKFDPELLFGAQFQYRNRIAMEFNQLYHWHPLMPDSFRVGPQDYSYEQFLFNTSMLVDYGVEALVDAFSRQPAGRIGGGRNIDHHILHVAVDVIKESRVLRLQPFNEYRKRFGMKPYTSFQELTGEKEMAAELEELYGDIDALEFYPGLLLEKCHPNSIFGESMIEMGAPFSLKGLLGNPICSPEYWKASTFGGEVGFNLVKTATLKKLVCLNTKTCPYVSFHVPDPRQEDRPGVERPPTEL

[10] = target: T2, Prostaglandin G/H synthase 2 (Homo sapiens, UniProt P35354); assay: Inhibition of recombinant human COX2 assessed as reduction in PGF2alpha production from PGH2 by enzyme immunoassay
T2 sequence (P35354 whole entry): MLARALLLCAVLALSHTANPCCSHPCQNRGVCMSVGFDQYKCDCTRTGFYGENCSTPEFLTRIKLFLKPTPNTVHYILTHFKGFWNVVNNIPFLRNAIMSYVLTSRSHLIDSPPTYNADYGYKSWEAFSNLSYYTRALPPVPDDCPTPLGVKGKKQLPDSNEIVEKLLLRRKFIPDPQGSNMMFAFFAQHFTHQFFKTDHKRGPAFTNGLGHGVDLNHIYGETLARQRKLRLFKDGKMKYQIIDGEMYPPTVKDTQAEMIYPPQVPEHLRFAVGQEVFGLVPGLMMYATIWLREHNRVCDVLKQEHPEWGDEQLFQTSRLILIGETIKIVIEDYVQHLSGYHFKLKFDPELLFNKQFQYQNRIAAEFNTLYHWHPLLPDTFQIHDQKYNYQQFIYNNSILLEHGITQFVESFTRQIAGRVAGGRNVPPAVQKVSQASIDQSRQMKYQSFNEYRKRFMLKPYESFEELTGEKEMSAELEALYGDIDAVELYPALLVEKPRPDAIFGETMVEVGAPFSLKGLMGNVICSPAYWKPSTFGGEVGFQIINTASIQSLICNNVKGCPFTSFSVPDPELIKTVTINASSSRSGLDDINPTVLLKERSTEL

[11] = Selectivity index, ratio of IC50 for recombinant ovine COX1 to IC50 for recombinant human COX2
[12] = system: Bovine viral diarrhea virus 1; assay: Antiviral activity against Bovine viral diarrhea virus 1 infected in MDBK cells; assay type: functional, cell-based; conditions: Bovine viral diarrhea virus isolates and strains
[13] = system: Bovine viral diarrhea virus 1; assay: Potency index, ratio of ribavirin EC50 to compound EC50 for Bovine viral diarrhea virus 1 infected in MDBK cells; assay type: functional
[14] = Antidiabetic activity in albino mouse assessed as reduction in alloxan-induced plasma glucose level at 0.2 mmol/kg, po administered 3 days post alloxan challenge measured 1 to 3 hrs post dose by copper reduction based colorimetric assay relative to control; assay type: functional, organism-based
[15] = system: Escherichia coli; assay: Antibacterial activity against Escherichia coli MTCC 443 after 24 hrs by broth dilution method; assay type: functional; conditions: MTCC 443, 24 h
[16] = system: Escherichia coli; assay: Antibacterial activity against Escherichia coli NCIM 2685 by broth microdilution method; assay type: functional
[17] = system: Staphylococcus aureus; assay: Antibacterial activity against Staphylococcus aureus; assay type: functional
[18] = system: Bacillus cereus; assay: Antibacterial activity against Bacillus cereus; assay type: functional
[19] = system: Bacillus subtilis; assay: Antibacterial activity against Bacillus subtilis by broth dilution method; assay type: functional
[20] = system: Mycobacterium tuberculosis; assay: Antimycobacterial activity against Mycobacterium tuberculosis H37Rv; assay type: functional
[21] = system: Pseudomonas aeruginosa; assay: Antibacterial activity against Pseudomonas aeruginosa after 16 hrs by serial dilution method; assay type: functional
[22] = system: Escherichia coli; assay: Antibacterial activity against Escherichia coli after 16 hrs by serial dilution method; assay type: functional
[23] = system: Staphylococcus aureus; assay: Antibacterial activity against Staphylococcus aureus after 16 hrs by serial dilution method; assay type: functional
[24] = system: Bacillus subtilis; assay: Antibacterial activity against Bacillus subtilis after 16 hrs by serial dilution method; assay type: functional

COc1ccc(-n2cc(CC3Cc4cc(OC)c(OC)cc4C3=O)c(-c3cc4ccccc4oc3=O)n2)cc1 (centres undefined)
Activity [1]: 138 mg/dL

Cc1ccc(-c2cc(C(=O)Nc3ccc(N)cc3)n(-c3ccc4ccccc4n3)n2)cc1
GI50 [2]: 30 µM | GI50 [3]: 18 µM

Nc1ccc2nc(Cl)c(-c3cc(-c4ccccc4)nn3C(=O)O)cc2c1
MIC [4]: 46 µg/mL (≈ 126 µM) | MIC [5]: 48 µg/mL (≈ 132 µM) | MIC [6]: 44 µg/mL (≈ 121 µM)

CC(=O)Nc1ccc(/N=N/c2c(N)nn3c(-c4ccccc4Cl)c(C#N)c(=O)[nH]c23)cc1
MIC [7]: 110 µg/mL (≈ 246 µM) | inhibition zone (IZ) [8]: 2.5 cm

CC(=O)NC1=NN(C(C)=O)C(c2cn(-c3ccccc3)nc2-c2ccc([N+](=O)[O-])cc2)S1 (centres undefined)
IC50 [9]: 70 µM | IC50 [10]: 20 µM | Ratio IC50 [11]: 3.5

Cc1ccc(-n2nc(C)c3c2CN(c2ccccc2)C3=O)cc1
EC50 [12]: 0.12 µM | Ratio EC50 [13]: 10

Cc1c(Br)c(C(F)(F)F)nn1-c1ccc(S(=O)(=O)NC(=O)Nc2ccccc2)cc1
inhibition [14]: 20%

O=C1CSC(N2N=C(c3ccccc3[N+](=O)[O-])CC2c2cn(-c3ccccc3)nc2-c2ccc(F)cc2)=N1 (centres undefined)
MIC [15]: 12.5 µg/mL (≈ 23.7 µM)

NC(=O)c1ncn([C@@H]2O[C@H](CO)[C@@H](O)[C@H]2O)n1 [RIBAVIRIN]
EC50 [12]: 1.3 µM

CC(=O)NC1=NN(C(C)=O)C(c2cn(-c3ccccc3)nc2-c2ccc(O)cc2)S1 (centres undefined)
IC50 [9]: 73 µM | IC50 [10]: 14 µM | Ratio IC50 [11]: 5.21

O=C(O)n1nc(-c2ccccc2)cc1-c1cc2ccccc2nc1Cl
MIC [4]: 57 µg/mL (≈ 163 µM) | MIC [6]: 54 µg/mL (≈ 154 µM) | MIC [16]: 43 µg/mL (≈ 123 µM)

Nc1ccc(NC(=O)c2cc(-c3ccc(Cl)cc3)nn2-c2ccccc2)cc1
GI50 [2]: 30 µM | GI50 [3]: 18 µM

O=C1C(c2cc(-c3ccc(Br)cc3)nn2-c2ccccc2)C(O)N(c2ccccc2)C(=S)N1c1ccccc1 (centres undefined)
MIC [17]: 31.2 µg/mL (≈ 52.5 µM) | MIC [18]: 31.2 µg/mL (≈ 52.5 µM)

COc1ccc(-n2c(-c3cn(-c4ccccc4)nc3-c3ccccc3)nc3ccccc3c2=O)cc1
MIC [19]: 62.5 µg/mL (≈ 133 µM)

COc1cc2c(cc1OC)C(=O)C(Cc1cn(-c3ccc(C)cc3)nc1-c1cc3ccccc3oc1=O)C2 (centres undefined)
Activity [1]: 115 mg/dL

O=C1c2ccccc2NC(c2cn(-c3ccccc3)nc2-c2ccccc2)N1c1ccc(Cl)cc1 (centres undefined)
MIC [20]: 12.5 µg/mL (≈ 26.2 µM)

O=C1/C(=C\c2cn(-c3ccccc3)nc2-c2ccc(O)cc2)SC(=S)N1c1ccc(Cl)cc1
IC50 [16]: 62.5 µg/mL (≈ 128 µM)

Sc1nncn1/N=C/c1cn[nH]c1-c1ccccc1
MIC [21]: 1.61 µg/mL (≈ 5.96 µM) | MIC [22]: 1.61 µg/mL (≈ 5.96 µM) | MIC [23]: 1.61 µg/mL (≈ 5.96 µM) | MIC [24]: 1.61 µg/mL (≈ 5.96 µM)
